Results taken from patent US9932381B2, “Exendin-4 derivatives as selective glucagon receptor agonists” (priority 2014, dated 2018).
Non-standard residues stand in square brackets, D forms with d. Residues, ends and D or L forms follow the SMILES beside them. Ala(4-thiazolyl) = N[C@@H](Cc1cscn1)C(=O)O; Chg = N[C@H](C(=O)O)C1CCCCC1; Tle = CC(C)(C)[C@H](N)C(=O)O; Nle = CCCC[C@H](N)C(=O)O

Tests used:
[1] = Solubility testing of exendin-4 derivatives (HPLC-UV of supernatant); type: physicochemical; conditions: pH 7.4
Experimental: Prior to the testing of solubility and stability of a peptide batch, its content was determined. Therefore, two parameters were investigated, its purity (HPLC-UV) and the amount of salt load of the batch (ion chromatography).
HPLC-UV was performed after 2 h of gentle agitation from the supernatant, which was obtained by 20 min of centrifugation at 4000 rpm.

[2] = target: T1, human GLP-1 receptor (hGLP-1 R) (Homo sapiens, UniProt P43220); test: cAMP response (HTRF) of HEK-293 cells stably expressing human GLP-1 receptor; type: cell-based
T1 construct: expressed in transfected cells; host or cells: HEK-293
Experimental: cAMP content of cells was determined using a kit from Cisbio Corp. (cat. no. 62AM4PEC) based on HTRF (Homogenous Time Resolved Fluorescence). For preparation, cells were split into T175 culture flasks and grown overnight to near confluency in medium (DMEM/10% FBS). Medium was then removed and cells washed with PBS lacking calcium and magnesium, followed by proteinase treatment with accutase (Sigma-Aldrich cat. no. A6964). Detached cells were washed and resuspended in assay buffer (1×HBSS; 20 mM HEPES, 0.1% BSA, 2 mM IBMX) and cellular density determined. They were then diluted to 400000 cells/ml and 25 μl-aliquots dispensed into the wells of 96-well plates. For measurement, 25 μl of test compound in assay buffer was added to the wells, followed by incubation for 30 minutes at room temperature. After addition of HTRF reagents diluted in lysis buffer (kit components), the plates were incubated for 1 hr, followed by measurement of the fluorescence ratio at 665/620 nm. In vitro potency of agonists was quantified by determining the concentrations that caused 50% activation of maximal response (EC50).

[3] = target: T2, human glucagon receptor (hGLUC R) (Homo sapiens, UniProt P47871); test: cAMP response (HTRF) of HEK-293 cells stably expressing human glucagon receptor; type: cell-based; conditions: Table 4; read-out: EC50 hGLUC R
T2 construct: expressed in transfected cells; host or cells: HEK-293
Procedure, shortened: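 Stably transfected HEK-293 cells, accutase-harvested; assay buffer 1×HBSS/20 mM HEPES/0.1% BSA/2 mM IBMX; 400000 cells/ml; compound 30 min, RT; cAMP by HTRF kit.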

T1 sequence (P43220 24-463): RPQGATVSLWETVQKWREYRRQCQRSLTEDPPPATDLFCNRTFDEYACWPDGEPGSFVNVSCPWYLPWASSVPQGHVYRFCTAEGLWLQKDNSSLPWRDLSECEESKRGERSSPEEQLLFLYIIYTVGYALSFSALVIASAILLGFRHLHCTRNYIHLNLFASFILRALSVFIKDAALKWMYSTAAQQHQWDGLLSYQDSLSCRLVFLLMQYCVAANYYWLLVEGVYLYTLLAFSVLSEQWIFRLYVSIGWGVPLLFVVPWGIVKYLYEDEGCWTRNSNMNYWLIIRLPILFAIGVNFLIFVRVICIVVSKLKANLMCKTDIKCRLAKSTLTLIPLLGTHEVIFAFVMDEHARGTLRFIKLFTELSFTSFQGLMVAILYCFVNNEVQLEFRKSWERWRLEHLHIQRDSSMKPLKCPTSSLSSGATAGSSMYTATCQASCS
T2 sequence (P47871 26-477): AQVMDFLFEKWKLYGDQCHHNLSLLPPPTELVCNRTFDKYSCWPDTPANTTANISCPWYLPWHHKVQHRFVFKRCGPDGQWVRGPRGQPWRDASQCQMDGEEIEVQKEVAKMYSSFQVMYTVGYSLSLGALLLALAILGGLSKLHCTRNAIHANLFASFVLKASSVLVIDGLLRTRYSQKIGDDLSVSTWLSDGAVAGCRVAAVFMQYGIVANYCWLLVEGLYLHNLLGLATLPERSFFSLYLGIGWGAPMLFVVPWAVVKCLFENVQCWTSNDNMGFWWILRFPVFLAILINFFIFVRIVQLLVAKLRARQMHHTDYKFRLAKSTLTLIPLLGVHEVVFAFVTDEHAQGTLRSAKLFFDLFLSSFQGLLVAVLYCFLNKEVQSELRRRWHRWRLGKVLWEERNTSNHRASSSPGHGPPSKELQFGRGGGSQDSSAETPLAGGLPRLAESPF

| Compound | solubility at 2 h [1] | EC50 ([2]; Table 4) | EC50 [3] | EC50 ([2]; Table 5, Tza vs. His in position 1) |
| --- | --- | --- | --- | --- |
| CCCC[C@H](NC(=O)[C@H](CCC(N)=O)NC(=O)[C@H](CCCCN)NC(=O)[C@H](CO)NC(=O)[C@H](CC(C)C)NC(=O)[C@H](CC(=O)O)NC(=O)[C@H](CO)NC(=O)[C@@H](NC(=O)[C@H](Cc1ccccc1)NC(=O)[C@@H](NC(=O)CNC(=O)[C@H](CCC(N)=O)NC(=O)[C@H](CO)NC(=O)[C@@H](N)Cc1cscn1)[C@@H](C)O)[C@@H](C)O)C(=O)N[C@@H](CCC(=O)O)C(=O)N[C@@H](CO)C(=O)N[C@@H](CCCNC(=N)N)C(=O)N[C@@H](CCCNC(=N)N)C(=O)N[C@@H](C)C(=O)N[C@@H](CCC(N)=O)C(=O)N[C@@H](CC(=O)O)C(=O)N[C@@H](Cc1ccccc1)C(=O)N[C@H](C(=O)N[C@@H](CCC(=O)O)C(=O)N[C@@H](Cc1c[nH]c2ccccc12)C(=O)N[C@@H](CC(C)C)C(=O)N[C@@H](CC(C)C)C(=O)N[C@@H](C)C(=O)N[C@H](C(=O)NCC(=O)N1CCC[C@H]1C(=O)N[C@@H](CCC(=O)O)C(=O)N[C@@H](CO)C(=O)NCC(=O)N[C@@H](C)C(=O)N1CCC[C@H]1C(=O)N1CCC[C@H]1C(=O)N1CCC[C@H]1C(=O)N[C@@H](CO)C(=O)O)[C@@H](C)O)[C@@H](C)CC [SEQ ID NO 3, Tza-S-Q-G-T-F-T-S-D-L-S-K-Q-Nle-ESRRAQDFIEWLLATGPESGAPPPS-OH] (H-[Ala(4-thiazolyl)]SQGTFTSDLSKQ[Nle]ESRRAQDFIEWLLATGPESGAPPPS-OH) | > 10000 µg/mL | 44.3 nM | 0.0018 nM | – |
| CC[C@H](C)[C@H](NC(=O)[C@H](Cc1ccccc1)NC(=O)[C@H](CCC(=O)O)NC(=O)[C@H](CCC(N)=O)NC(=O)[C@H](C)NC(=O)[C@H](CCCNC(=N)N)NC(=O)[C@H](CCCNC(=N)N)NC(=O)[C@H](CO)NC(=O)[C@H](CCC(=O)O)NC(=O)[C@H](CC(C)C)NC(=O)[C@H](CCC(N)=O)NC(=O)[C@H](CCCCN)NC(=O)[C@H](CO)NC(=O)[C@@H](NC(=O)[C@H](CC(=O)O)NC(=O)[C@H](CO)NC(=O)[C@@H](NC(=O)[C@H](Cc1ccccc1)NC(=O)[C@@H](NC(=O)CNC(=O)[C@H](CCC(N)=O)NC(=O)[C@H](CO)NC(=O)[C@@H](N)Cc1cscn1)[C@@H](C)O)[C@@H](C)O)C(C)C)C(=O)N[C@@H](CCC(=O)O)C(=O)N[C@@H](Cc1c[nH]c2ccccc12)C(=O)N[C@@H](CC(C)C)C(=O)N[C@@H](CC(C)C)C(=O)N[C@@H](C)C(=O)NCC(=O)NCC(=O)N1CCC[C@H]1C(=O)N[C@@H](CCC(=O)O)C(=O)N[C@@H](CO)C(=O)NCC(=O)N[C@@H](C)C(=O)N1CCC[C@H]1C(=O)N1CCC[C@H]1C(=O)N1CCC[C@H]1C(=O)N[C@@H](CO)C(=O)O [SEQ ID NO 9, Tza-SQGTFTSDVSKQLESRRAQEFIEWLLAGGPESGAPPPS-OH] (H-[Ala(4-thiazolyl)]SQGTFTSDVSKQLESRRAQEFIEWLLAGGPESGAPPPS-OH) | > 10000 µg/mL | – | 0.0022 nM | – |
| CC[C@H](C)[C@H](NC(=O)[C@H](Cc1ccccc1)NC(=O)[C@H](CC(=O)O)NC(=O)[C@H](CCC(N)=O)NC(=O)[C@H](C)NC(=O)[C@H](CCCNC(=N)N)NC(=O)[C@H](CCCNC(=N)N)NC(=O)[C@H](CO)NC(=O)[C@H](CCC(=O)O)NC(=O)[C@H](CC(C)C)NC(=O)[C@H](CCC(N)=O)NC(=O)[C@H](CCCCN)NC(=O)[C@H](CO)NC(=O)[C@H](CC(C)C)NC(=O)[C@H](CC(=O)O)NC(=O)[C@H](CO)NC(=O)[C@@H](NC(=O)[C@H](Cc1ccccc1)NC(=O)[C@@H](NC(=O)CNC(=O)[C@H](CCC(N)=O)NC(=O)[C@H](CO)NC(=O)[C@@H](N)Cc1cscn1)[C@@H](C)O)[C@@H](C)O)C(=O)N[C@@H](CCC(=O)O)C(=O)N[C@@H](Cc1c[nH]c2ccccc12)C(=O)N[C@@H](CC(C)C)C(=O)N[C@@H](CC(C)C)C(=O)N[C@@H](C)C(=O)N[C@H](C(=O)NCC(=O)N1CCC[C@H]1C(=O)N[C@@H](CCC(=O)O)C(=O)N[C@@H](CO)C(=O)NCC(=O)N[C@@H](C)C(=O)N1CCC[C@H]1C(=O)N1CCC[C@H]1C(=O)N1CCC[C@H]1C(=O)N[C@@H](CO)C(=O)O)[C@@H](C)O [SEQ ID NO 15, Tza-SQGTFTSDLSKQLESRRAQDFIEWLLATGPESGAPPPS-OH] (H-[Ala(4-thiazolyl)]SQGTFTSDLSKQLESRRAQDFIEWLLATGPESGAPPPS-OH) | > 10000 µg/mL | 34.5 nM | 0.0022 nM | 19.7 nM |
| CC[C@H](C)[C@H](NC(=O)[C@H](Cc1ccccc1)NC(=O)[C@H](CC(=O)O)NC(=O)[C@H](CCC(N)=O)NC(=O)[C@H](C)NC(=O)[C@H](CCCNC(=N)N)NC(=O)[C@H](CCCNC(=N)N)NC(=O)[C@H](CO)NC(=O)[C@H](CCC(=O)O)NC(=O)[C@H](CC(C)C)NC(=O)[C@H](CCC(N)=O)NC(=O)[C@H](CCCCN)NC(=O)[C@H](CO)NC(=O)[C@@H](NC(=O)[C@H](CC(=O)O)NC(=O)[C@H](CO)NC(=O)[C@@H](NC(=O)[C@H](Cc1ccccc1)NC(=O)[C@@H](NC(=O)CNC(=O)[C@H](CCC(N)=O)NC(=O)[C@H](CO)NC(=O)[C@@H](N)Cc1cscn1)[C@@H](C)O)[C@@H](C)O)C1CCCCC1)C(=O)N[C@@H](CCC(=O)O)C(=O)N[C@@H](Cc1c[nH]c2ccccc12)C(=O)N[C@@H](CC(C)C)C(=O)N[C@@H](CC(C)C)C(=O)N[C@@H](C)C(=O)N[C@H](C(=O)NCC(=O)N1CCC[C@H]1C(=O)N[C@@H](CCC(=O)O)C(=O)N[C@@H](CO)C(=O)NCC(=O)N[C@@H](C)C(=O)N1CCC[C@H]1C(=O)N1CCC[C@H]1C(=O)N1CCC[C@H]1C(=O)N[C@@H](CO)C(=O)O)[C@@H](C)O [SEQ ID NO 23, Tza-S-Q-G-T-F-T-S-D-Chg-SKQLESRRAQDFIEWLLATGPESGAPPPS-OH] (H-[Ala(4-thiazolyl)]SQGTFTSD[Chg]SKQLESRRAQDFIEWLLATGPESGAPPPS-OH; N-terminus assumed) | > 10000 µg/mL | – | – | – |
| CCCC[C@H](NC(=O)[C@H](CCC(N)=O)NC(=O)[C@H](CCCCN)NC(=O)[C@H](CO)NC(=O)[C@@H](NC(=O)[C@H](CC(=O)O)NC(=O)[C@H](CO)NC(=O)[C@@H](NC(=O)[C@H](Cc1ccccc1)NC(=O)[C@@H](NC(=O)CNC(=O)[C@H](CCC(N)=O)NC(=O)[C@H](CO)NC(=O)[C@@H](N)Cc1cscn1)[C@@H](C)O)[C@@H](C)O)C1CCCCC1)C(=O)N[C@@H](CCC(=O)O)C(=O)N[C@@H](CO)C(=O)N[C@@H](CCCNC(=N)N)C(=O)N[C@@H](CCCNC(=N)N)C(=O)N[C@@H](C)C(=O)N[C@@H](CCC(N)=O)C(=O)N[C@@H](CCC(=O)O)C(=O)N[C@@H](Cc1ccccc1)C(=O)N[C@H](C(=O)N[C@@H](CCC(=O)O)C(=O)N[C@@H](Cc1c[nH]c2ccccc12)C(=O)N[C@@H](CC(C)C)C(=O)N[C@@H](CC(C)C)C(=O)N[C@@H](C)C(=O)N[C@H](C(=O)NCC(=O)N1CCC[C@H]1C(=O)N[C@@H](CCC(=O)O)C(=O)N[C@@H](CO)C(=O)NCC(=O)N[C@@H](C)C(=O)N1CCC[C@H]1C(=O)N1CCC[C@H]1C(=O)N1CCC[C@H]1C(=O)N[C@@H](CO)C(=O)O)[C@@H](C)O)[C@@H](C)CC [SEQ ID NO 24, Tza-S-Q-G-T-F-T-S-D-Chg-S-K-Q-Nle-ESRRAQEFIEWLLATGPESGAPPPS-OH] (H-[Ala(4-thiazolyl)]SQGTFTSD[Chg]SKQ[Nle]ESRRAQEFIEWLLATGPESGAPPPS-OH) | > 10000 µg/mL | – | – | – |
| CCCC[C@H](NC(=O)[C@H](CCC(N)=O)NC(=O)[C@H](CCCCN)NC(=O)[C@H](CO)NC(=O)[C@@H](NC(=O)[C@H](CC(=O)O)NC(=O)[C@H](CO)NC(=O)[C@@H](NC(=O)[C@H](Cc1ccccc1)NC(=O)[C@@H](NC(=O)CNC(=O)[C@H](CCC(N)=O)NC(=O)[C@H](CO)NC(=O)[C@@H](N)Cc1cscn1)[C@@H](C)O)[C@@H](C)O)C(C)(C)C)C(=O)N[C@@H](CCC(=O)O)C(=O)N[C@@H](CO)C(=O)N[C@@H](CCCNC(=N)N)C(=O)N[C@@H](CCCNC(=N)N)C(=O)N[C@@H](C)C(=O)N[C@@H](CCC(N)=O)C(=O)N[C@@H](CCC(=O)O)C(=O)N[C@@H](Cc1ccccc1)C(=O)N[C@H](C(=O)N[C@@H](CCC(=O)O)C(=O)N[C@@H](Cc1c[nH]c2ccccc12)C(=O)N[C@@H](CC(C)C)C(=O)N[C@@H](CC(C)C)C(=O)N[C@@H](C)C(=O)N[C@H](C(=O)NCC(=O)N1CCC[C@H]1C(=O)N[C@@H](CCC(=O)O)C(=O)N[C@@H](CO)C(=O)NCC(=O)N[C@@H](C)C(=O)N1CCC[C@H]1C(=O)N1CCC[C@H]1C(=O)N1CCC[C@H]1C(=O)N[C@@H](CO)C(=O)O)[C@@H](C)O)[C@@H](C)CC [SEQ ID NO 25, Tza-S-Q-G-T-F-T-S-D-Tle-S-K-Q-Nle-ESRRAQEFIEWLLATGPESGAPPPS-OH] (H-[Ala(4-thiazolyl)]SQGTFTSD[Tle]SKQ[Nle]ESRRAQEFIEWLLATGPESGAPPPS-OH; N-terminus assumed) | > 10000 µg/mL | – | – | – |
